Source: PubChem BioAssay (NCI)
“And” between values parts separate entries of the source, which are not always exact repeats. Equal values may be shown once.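 Dose response: 5 concentrations. Exposure: 48 h. Format: 96-well plates. Endpoint: linear interpolation; highest concentration if not reached. GI50 marks 50% less growth. TGI is the concentration that stops growth completely.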 Where a SMILES comes first, the peptide text is derived from it. [ ]: non-standard residue; d: D form. The star is where a group is joined. NMeF = CN[CH](Cc1ccccc1)C(=O)O; NMeV = CN[CH](C(=O)O)C(C)C; Boc = CC(C)(C)OC(=O)*; OBn = c1ccc(CO*)cc1

Experiments:
Assay in all cases: NCI anticancer screen, dose series, 48 h
[1] = system: HL-60(TB) leukemia
[2] = system: HOP-62 NSCLC
[3] = system: K-562 leukemia
[4] = system: KM12 colon
[5] = system: OVCAR-5 ovarian
[6] = system: SK-MEL-5 melanoma
[7] = system: SR leukemia
[8] = system: U251 CNS
[9] = system: DMS 114 small cell lung
[10] = system: KM20L2 colon
[11] = system: LXFL 529 NSCLC
[12] = system: M19-MEL melanoma
[13] = system: XF 498 CNS

| SMILES | TGI [1] | TGI [2] | TGI [3] | TGI [4] | TGI [5] | TGI [6] | TGI [7] | TGI [8] | TGI [9] | TGI [10] | TGI [11] | TGI [12] | TGI [13] | GI50 [1] | GI50 [5] | GI50 [8] |
| --- | --- | --- | --- | --- | --- | --- | --- | --- | --- | --- | --- | --- | --- | --- | --- | --- |
| COC(=O)C1=C(OC(=O)/C(=C/c2ccc(Cl)cc2)c2ccccc2)C(C(=O)OC)[C@@]2(O)[C@@H](C(=O)OC)[C@H](C)C[C@@H]1[C@@H]2C(=O)OC (some centres undefined) | > 100 µM | > 100 µM | > 100 µM | > 100 µM | > 100 µM | > 100 µM | > 100 µM | > 100 µM |  |  |  |  |  |  |  |  |
| Clc1ccc(OCC2NC3C=CC32)cn1 (centres undefined) | > 100 µM | > 100 µM | > 100 µM | > 100 µM | > 100 µM | > 100 µM | > 100 µM | > 100 µM |  |  |  |  |  |  |  |  |
| CC(C)C(NC(=O)OC(C)(C)C)C(=O)N(C)C(Cc1ccccc1)C(=O)N(C)C(C(=O)N(C)C(C(=O)OCc1ccccc1)C(C)C)C(C)C (centres undefined) (Boc-V[NMeF][NMeV][NMeV]-OBn; configuration not given here) | > 100 µM | > 100 µM | > 100 µM | > 100 µM |  | > 100 µM | > 100 µM | > 100 µM | > 100 µM | > 100 µM | > 100 µM | > 100 µM | 82.4 µM |  |  |  |
| CC1NOC(NS(=O)(=O)c2ccc(N=Nc3c(O)c(C(=O)O)cc4ccccc34)cc2)C1C (centres undefined) | > 100 µM | > 100 µM | > 100 µM | > 100 µM | > 100 µM | > 100 µM | > 100 µM | > 100 µM |  |  |  |  |  |  |  |  |
| COc1cc2c3c(cc(Cl)nc3c1OC)C(O)(CC(C)=O)C(=O)N2 (centres undefined) | 24.1 µM | > 59.8 µM | > 95 µM | > 61.6 µM | > 56.4 µM | > 56 µM | > 66.9 µM | > 100 µM |  |  |  |  |  |  |  |  |
| CCN(CC)C(=S)SNCCc1ccc(S(N)(=O)=O)cc1 | > 67.2 µM | 26.3 µM | > 100 µM | 37.6 µM | 30.4 µM | 24.4 µM | > 49.4 µM | 31.8 µM |  |  |  |  |  |  |  |  |
| CCN(CC)C(=O)c1c(N2CCOCC2)cc(N(CC)CC)oc1=O | > 100 µM | > 100 µM | > 100 µM | > 100 µM |  |  | > 100 µM | > 100 µM | > 100 µM | > 100 µM | > 100 µM | > 100 µM | > 100 µM |  |  |  |
| Cc1ccc(NC(=O)c2cccc([N+](=O)[O-])c2O)c(C)c1 | 55.6 µM | > 100 µM | > 100 µM | > 100 µM | > 100 µM |  | > 100 µM | > 100 µM | > 100 µM | > 100 µM | > 100 µM | > 100 µM |  |  |  |  |
| CCCCCCC(CCl)c1sc(-c2csc(CCNC(=O)OC(C)(C)C)n2)nc1C(=O)OC (centres undefined) | > 100 µM | > 100 µM | > 100 µM | 80.5 µM | > 100 µM | 16.1 µM | > 100 µM | 38 µM |  |  |  |  |  |  |  |  |
| Cc1ccc([N+](=O)[O-])cc1S(=O)(=O)Nc1ccc(C2=NN(c3ccc([N+](=O)[O-])cc3[N+](=O)[O-])C(c3ccccc3O)C2)cc1 (centres undefined) | > 100 µM | > 100 µM | > 100 µM | > 100 µM | > 100 µM | 61.1 µM | > 100 µM | > 100 µM |  |  |  |  |  |  |  |  |
| Cc1ccc(S(=O)(=O)n2cc(-c3cnc(N)c(Br)n3)c3ccccc32)cc1 | 6.58 µM | > 100 µM | > 100 µM | > 40.1 µM | > 77.1 µM | 41.4 µM | 10.2 µM | > 77.5 µM |  |  |  |  |  |  |  |  |
| CC(=O)NC1C(OCc2ccccc2)OC(CO)C(O)C1OCC(=O)NC(C)C(=O)NC(CCC(=O)NCCCCCC(=O)Nc1ccc2c(c1)CN1C(=O)c3ccccc3C1=N2)C(N)=O (centres undefined) | > 100 µM | > 100 µM | > 100 µM | > 100 µM | > 100 µM | > 100 µM | 42.5 µM | > 100 µM |  |  |  |  |  |  |  |  |
| COc1ccc2[nH]c(C(=O)N3CC(CCl)c4ccc([N+](=O)[O-])cc43)cc2c1 (centres undefined) | > 100 µM | > 100 µM | > 100 µM | > 100 µM | > 100 µM | > 100 µM | > 100 µM | > 100 µM |  |  |  |  |  |  |  |  |
| c1ccc([C@H]2CN3CCSC3=N2)cc1 | > 100 µM | > 100 µM | > 100 µM | > 100 µM | > 100 µM | > 100 µM | > 100 µM | > 100 µM |  |  |  |  |  |  |  |  |
| N#CSCC1COc2ccccc2O1 (centres undefined) | 8.66 µM | > 10 µM | > 10 µM | > 10 µM | > 10 µM | > 10 µM | > 10 µM | > 10 µM |  |  |  |  |  |  |  |  |
| Cc1cc(=O)c2c(O)c3c(O)cc(O)c4c5c(O)cc(O)c6c(O)c7c(=O)cc(C)c8c1c2c(c34)c(c65)c78 | > 100 µM and 30.7 µM | > 73 µM | > 100 µM | > 100 µM | > 100 µM and 45.3 µM | > 100 µM | > 100 µM | > 100 µM |  | 49.2 µM |  | > 63.6 µM | > 100 µM | 11.7 µM | > 100 µM and 24.7 µM | > 100 µM and 37.3 µM |
